Laboratory results taken from article PMC6325219, “Preclinical Characterization of NVR 3-778, a First-in-Class Capsid Assembly Modulator against Hepatitis B Virus” (Antimicrobial Agents and Chemotherapy, 2018).
Marks after values point to notes of the source that are not given here.

Columns and labels:
[1] = target: T1, recombinant HBV core protein (Hepatitis B virus genotype D subtype ayw, UniProt P03146); assay: Capsid assembly of recombinant core protein, electron microscopy; assay type: biochemical; conditions: 1.2:1 compound-to-core monomer ratio, 0.15 M NaCl, room temperature overnight
T1 construct: Electron microscopy with HBV capsid formed from recombinant HBV core protein was performed as described previously ([5])
Protocol: FIG 1 NVR 3-778 targets HBV core protein and inhibits viral replication. (A) Chemical structure of NVR 3-778. (B) Purified recombinant HBV core protein in the absence or presence of NVR 3-778. NVR 3-778 was incubated with recombinant core protein (1.2:1 compound-to-core monomer ratio) in buffer containing 0.15 M NaCl at room temperature overnight prior to staining and imaging by electron microscopy. (C, D) The effect of NVR 3-778 on intracellular rcDNA, extracellular HBV DNA, or cell viability (C) or on intracellular encapsidated pgRNA- or extracellular HBV RNA-containing particles (D) was determined upon treating HepG2.2.15 cells with increasing concentrations of NVR 3-778. (E, F) The effect of TFV on intracellular rcDNA, extracellular HBV DNA, or cell viability (E) or on intracellular encapsidated pgRNA- or extracellular HBV RNA-containing particles (F) was determined upon treating HepG2.2.15 cells with increasing concentrations of TFV. Secreted HBV DNA and secreted HBV RNA levels were determined from the supernatant of HepG2.2.15 cells. Intracellular encapsidated rcDNA and pgRNA levels were determined upon NP-40 lysis of cells and by using S7 nuclease to remove nonencapsidated nucleic acids. Cell viability was determined by measuring ATP levels using the CellTiter-Glo assay. […]

[2] = system: HBV isolates representing GT A to H; assay: Transient-transfection antiviral study, panel of HBV isolates GT A to H (summary statements); assay type: cell-based, hepatitis B virus; conditions: EC50 values within this factor of each other
HBV rtN236T variant = assay type: cell-based, hepatitis B virus; conditions: ratio of mean EC50 against variant over WT HBV, HepG2 cells
Text: (§1) Plasmids containing HBV DNA with rtN236T, rtA181V, rtA181V/N236T, and rtL180M/M204V/N236T were generated using the GT B WT or rtL180M/M204V DNA-containing plasmids and site-directed mutagenesis (Agilent Technologies). A panel of nine different HBV core variants (cW102G, cW102R, cI105V, cI105L, cI105T, cT109S, cT109M, cT109I, and cY118F) was generated, also using the GT B WT DNA-containing plasmid and site-directed mutagenesis. The full-length genome from all plasmids was sequenced to confirm that only the intended nucleotide change(s) was present. Finally, HBV sequences from genotypes A (GenBank accession number AF305422), C (GenBank accession number AB033550), D (GenBank accession number V01460), E (GenBank accession number AB274971), F (GenBank accession number AB036912), G (GenBank accession number AF160501), and H (GenBank accession number AB375159) were gene synthesized as 1.1 times the genome length together with part of the CMV promoter at the 5′ end. The gene-synthesized piece was validated by sequencing and subcloned into the pCMV-HBV plasmid using the restriction sites SalI and NdeI (Genewiz, USA).
(§2) HepG2 cells were seeded in 96-well plates at a density of 20,000 cells/well and allowed to attach overnight at 37°C in 5% CO2. Cells were cotransfected with the HBV plasmids (100 ng/well) and a Gaussia expression plasmid (10 ng/well) (Thermo Scientific) using the Lipofectamine LTX Plus transfection reagent (Life Technologies). Transfection mixtures were removed after overnight incubation, and cells were treated with serially diluted NVR 3-778 at a final dimethyl sulfoxide (DMSO) concentration of 0.5%. After 3 days of incubation with the compound, the supernatants were collected and secreted Gaussia luciferase was measured using a Gaussia Flash luciferase assay kit (Thermo Scientific). Cells were lysed with 0.33% NP-40 (Thermo Scientific), and the cytoplasmic fractions were treated with 2 units of Turbo DNase (Invitrogen) and 10 units of S7 nuclease (Roche) in CutSmart buffer (New England Biolabs) containing 25 µM CaCl2 (G-Biosciences) at 37°C for 60 min, followed by inactivation of the enzymes at 75°C for 15 min. Samples were diluted into lysis buffer (Affymetrix) containing 2.5 µg proteinase K (Affymetrix) at 50°C for 40 min. Intracellular encapsidated HBV DNA was denatured for 30 min at 25°C in 0.2 M NaOH (Sigma) and incubated with HBV DNA probes designed to hybridize to the minus-strand HBV DNA (Affymetrix). The denatured DNA was subsequently detected using a QuantiGene assay kit, according to the branched DNA (bDNA) assay recommended by the manufacturer (Affymetrix).
(§3) To determine percent inhibition, the mean background signal from wells containing only culture medium was subtracted from the signal for all other samples, and percent inhibition at each compound concentration was calculated by normalization to the signals for HepG2.2.15 cells treated with 0.5% DMSO. […] Both CalcuSyn and MacSynergy II (Ann Arbor, MI) software were used to evaluate the effect of compound combinations ([27]). After data analysis at the 95% confidence level, values of synergy or antagonism of <25 µM^2% were defined as insignificant, those between 25 and 50 µM^2% were defined as minor, those between 50 and 100 µM^2% were defined as moderate, and those of >100 µM^2% were defined as strong.

[3] = system: HBV core protein variant I105T; assay: microbe, parasite or virus in culture
Text: as §1, §2, §3

[4] = system: HBV core protein variant Y118F; assay: microbe, parasite or virus in culture
Text: as §1, §2, §3

[5] = system: HBV core protein variant T109M; assay: microbe, parasite or virus in culture
Text: as §1, §2, §3

[6] = system: HBV core protein variant T109I; assay: microbe, parasite or virus in culture
Text: as §1, §2, §3

HBV GT C = assay: Transient-transfection antiviral study in HepG2 cells, GT C; assay type: cell-based; conditions: Hepatitis B virus, HepG2, 72 h, read-out: EC50 (mean), HBV GT C
plasma proteins = assay: Plasma protein binding by equilibrium dialysis, rat; assay type: in vitro ADME; conditions: 2 µM
Text: The binding of NVR 3-778 to the plasma proteins of mouse, rat, dog, monkey, and human was investigated by equilibrium dialysis.

[7] = ratio of mean EC50 for core variant over wild-type HBV

O=C(Nc1cc(F)c(F)c(F)c1)c1ccc(F)c(S(=O)(=O)N2CCC(O)CC2)c1 [NVR 3-778]
Effect on assembly of purified recombinant core protein [1]: effectively induced the formation of capsid-like particles | Spread of EC50 values against HBV DNA replication across GT A to H isolates [2]: ≤ 3 fold | EC50 fold change, rtN236T (HBV rtN236T variant): 0.85 ± 0.40^d fold | EC50 ([3]; Hepatitis B virus, HepG2, read-out: EC50, core variant I105T): 1500 ± 300 nM | EC50 FC, I105T [3, 7]: 6.5 fold | EC50 ([4]; Hepatitis B virus, HepG2, read-out: EC50, core variant Y118F): 1700 ± 700 nM | EC50 FC, Y118F [4, 7]: 7.4 fold | EC50 ([5]; Hepatitis B virus, HepG2, read-out: EC50, core variant T109M): 280 ± 130 nM | EC50 FC, T109M [5, 7]: 1.2 fold | EC50 ([6]; Hepatitis B virus, HepG2, read-out: EC50, core variant T109I): 150 ± 61 nM | EC50 FC, T109I [6, 7]: 0.65 fold | EC50 (HBV GT C): 340 nM | Mean percent binding to plasma proteins (plasma proteins): approximately 91%
